In US11053218B2, “3-(1-oxoisoindolin-2-yl)piperidine-2,6-dione derivatives and uses thereof” (Novartis AG, priority 2017, dated 2021) one finds DC50 and inhibition data, which are given here for 22 compounds.

One test addresses IKZF1 (Homo sapiens, UniProt Q13422+Q96SW2). Kind of test: Prolabel quantification of IKZF1 protein levels in 293GT cells. The settings on record: Prolabel assay, read-out: IKZF1 EC50. In kind it is cell-based. As to the method: (§1) The Prolabel system from DiscoverX was used to develop high-throughput and quantitative assays to measure changes in IKZF1, IKZF2 and GSPT1 protein levels in response to compounds. The prolabel tag was derived from the alpha fragment of beta galactosidase and has the following protein sequence: mssnslavvlqrrdwenpgvtqlnrlaahppfaswrnseeartdrpsqqlrslnge. The complementary fragment of beta-galactosidase (from DiscoverX), is added to the prolabel tag to form an active beta galactosidase enzyme whose activity can be precisely measured. In this way, the levels of a fusion protein with the prolabel tag can be quantified in cell lysates.
(§2) Lentiviral vectors, based on the Invitrogen pLenti6.2/V5 DEST backbone, were constructed that placed the prolabel tag upstream of IKZF1, IKZF2 or GSPT1 and expressed the fusion protein from a CMV promoter.
(§3) To ensure moderate and consistent expression of the prolabel fusion proteins across all cells in the population, stable cell lines were constructed from cells expressing a single copy of the construct. Lentivirus packaged with the constructs was made using the Virapower kit from Invitrogen.
(§4) The levels of prolabel tagged fusion proteins in compound treated cell lines were measured as follows:
(§5) Day 1, Cells were diluted to 1.0×10^6 cells/ml in normal growth medium. 17.5 μL of cells were plated in each well of a solid white 384 well plate. Plates were incubated overnight in a 37° C. tissue culture incubator.
(§6) Day 2, Serial dilutions of compounds were made in 384 well plates from 10 mM stocks. 15 μL of DMSO was added to each well of a 384 well plate. In the first column 15 μL of stock compound was added. The solution was mixed and 15 μL was transferred to the next column. This was repeated until 20 two-fold dilutions were prepared. 2.5 μL of diluted compounds were transferred into 60 μL of cell culture medium in another 384 well plate, and mixed well. 2.5 μL of this mixture was added to the plated cells. The final DMSO concentration was 0.5% and the highest concentration of compound was 50 μM. Plates were incubated overnight (e.g., about 14 h, 18 h, or 24 h) in a 37° C. tissue culture incubator.
(§7) Day 3, Plates were removed from the incubator and allowed to equilibrate at rt for 30 minutes. Prolabel substrate (DiscoverX PathHunter Prolabel Detection Kit, User manual: 93-0180) was added as described by the manufacturers protocols. Plates were incubated at rt for three hours and luminescence was read using an Envision reader (Perkin Elmer) Data was analyzed and visualized using the Spotfire software package.

The next test deals with IKZF2 (Homo sapiens, UniProt Q96SW2+Q9UKS7). Description: Prolabel quantification of IKZF2 protein levels in 293GT cells. Type of test: cell-based. The note with it: 293GT cells; for inhibition at 10 µM: 24 h, read-out: IKZF2 % protein reduction at 10 μM, 24 h; for DC50: Prolabel assay, read-out: IKZF2 EC50. As for the experimental part: as §1, §2, §3, §4, §5, §6, §7

Molecules are shown by their SMILES. A value given as a limit tells only on which side of the number the result lay.

Chain of IKZF2 (Q9UKS7 whole entry): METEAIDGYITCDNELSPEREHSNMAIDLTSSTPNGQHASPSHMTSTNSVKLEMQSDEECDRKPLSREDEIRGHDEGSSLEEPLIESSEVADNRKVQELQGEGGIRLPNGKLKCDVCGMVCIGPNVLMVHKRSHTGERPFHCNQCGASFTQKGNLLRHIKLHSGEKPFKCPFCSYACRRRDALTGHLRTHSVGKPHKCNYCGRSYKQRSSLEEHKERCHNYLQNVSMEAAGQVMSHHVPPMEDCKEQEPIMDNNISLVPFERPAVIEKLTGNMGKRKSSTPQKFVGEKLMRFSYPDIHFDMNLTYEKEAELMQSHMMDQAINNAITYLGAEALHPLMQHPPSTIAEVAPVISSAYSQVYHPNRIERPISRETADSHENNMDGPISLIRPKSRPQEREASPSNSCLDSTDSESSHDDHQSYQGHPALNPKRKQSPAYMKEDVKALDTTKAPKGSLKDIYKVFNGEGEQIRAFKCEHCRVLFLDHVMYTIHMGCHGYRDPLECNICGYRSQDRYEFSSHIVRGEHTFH
Chain of IKZF2 (Q96SW2 whole entry): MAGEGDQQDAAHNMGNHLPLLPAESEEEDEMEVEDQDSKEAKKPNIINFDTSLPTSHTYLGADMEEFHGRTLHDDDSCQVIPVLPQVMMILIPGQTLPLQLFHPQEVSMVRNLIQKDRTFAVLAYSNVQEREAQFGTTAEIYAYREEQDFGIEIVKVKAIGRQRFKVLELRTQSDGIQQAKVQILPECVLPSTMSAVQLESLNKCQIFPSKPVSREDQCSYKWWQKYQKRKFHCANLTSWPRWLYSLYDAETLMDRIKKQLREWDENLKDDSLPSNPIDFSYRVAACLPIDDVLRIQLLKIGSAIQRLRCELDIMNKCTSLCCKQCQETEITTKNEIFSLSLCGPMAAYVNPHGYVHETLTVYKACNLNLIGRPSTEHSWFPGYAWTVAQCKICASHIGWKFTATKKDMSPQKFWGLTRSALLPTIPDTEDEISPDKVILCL
Chain of IKZF2 (Q16531 whole entry partner): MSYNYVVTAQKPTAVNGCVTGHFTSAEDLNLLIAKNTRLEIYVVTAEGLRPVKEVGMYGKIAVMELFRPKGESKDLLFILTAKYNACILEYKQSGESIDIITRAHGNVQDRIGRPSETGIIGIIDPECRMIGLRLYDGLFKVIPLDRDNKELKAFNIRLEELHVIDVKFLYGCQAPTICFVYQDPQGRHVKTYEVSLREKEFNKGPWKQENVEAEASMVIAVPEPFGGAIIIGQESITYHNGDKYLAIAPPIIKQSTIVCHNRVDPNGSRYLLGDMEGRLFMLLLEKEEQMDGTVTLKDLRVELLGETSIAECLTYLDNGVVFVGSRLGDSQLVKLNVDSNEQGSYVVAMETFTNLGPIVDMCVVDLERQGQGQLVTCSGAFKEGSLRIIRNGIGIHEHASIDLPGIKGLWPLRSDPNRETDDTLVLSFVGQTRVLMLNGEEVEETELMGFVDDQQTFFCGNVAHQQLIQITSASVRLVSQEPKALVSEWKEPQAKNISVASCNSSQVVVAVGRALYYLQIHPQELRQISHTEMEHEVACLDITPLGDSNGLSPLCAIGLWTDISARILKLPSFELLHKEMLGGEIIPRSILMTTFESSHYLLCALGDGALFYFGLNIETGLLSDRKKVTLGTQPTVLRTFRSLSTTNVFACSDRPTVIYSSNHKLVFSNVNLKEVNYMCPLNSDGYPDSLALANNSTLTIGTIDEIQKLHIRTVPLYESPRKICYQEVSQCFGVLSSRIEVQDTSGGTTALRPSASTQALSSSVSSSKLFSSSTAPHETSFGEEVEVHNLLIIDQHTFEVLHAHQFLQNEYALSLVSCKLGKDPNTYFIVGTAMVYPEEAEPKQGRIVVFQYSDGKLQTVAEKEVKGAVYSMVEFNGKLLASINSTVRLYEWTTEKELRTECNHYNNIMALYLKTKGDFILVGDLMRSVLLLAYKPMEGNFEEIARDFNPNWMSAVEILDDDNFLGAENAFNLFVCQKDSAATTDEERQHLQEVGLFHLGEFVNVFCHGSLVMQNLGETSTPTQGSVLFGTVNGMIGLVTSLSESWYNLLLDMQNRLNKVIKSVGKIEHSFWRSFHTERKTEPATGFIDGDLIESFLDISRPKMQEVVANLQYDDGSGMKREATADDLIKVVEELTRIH
Chain of IKZF1 (Q13422 whole entry, the tested form may be a part): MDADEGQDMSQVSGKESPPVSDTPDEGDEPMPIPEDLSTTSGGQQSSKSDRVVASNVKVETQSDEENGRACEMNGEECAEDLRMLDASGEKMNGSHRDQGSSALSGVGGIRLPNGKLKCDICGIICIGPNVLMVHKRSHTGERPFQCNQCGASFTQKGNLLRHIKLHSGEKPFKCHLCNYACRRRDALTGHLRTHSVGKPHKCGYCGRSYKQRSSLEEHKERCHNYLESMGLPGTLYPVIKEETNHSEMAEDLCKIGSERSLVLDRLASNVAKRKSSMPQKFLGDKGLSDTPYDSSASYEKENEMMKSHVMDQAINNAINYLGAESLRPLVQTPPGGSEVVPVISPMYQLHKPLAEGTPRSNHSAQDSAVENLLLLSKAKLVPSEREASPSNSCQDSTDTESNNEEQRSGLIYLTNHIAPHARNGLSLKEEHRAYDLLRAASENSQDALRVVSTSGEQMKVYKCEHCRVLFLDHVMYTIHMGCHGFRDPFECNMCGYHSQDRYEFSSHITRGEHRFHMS
Chain of IKZF1 (Q96SW2 whole entry, the tested form may be a part): as the sequence (Q96SW2 whole entry) above
Chain of IKZF1 (Q16531 whole entry partner, the tested form may be a part): as the sequence (Q16531 whole entry partner) above

Turning to `Cc1cc2nc(CN3CCC(c4ccc5c(c4)CN(C4CCC(=O)NC4=O)C5=O)CC3)cc(O)n2n1` (stereo not drawn) [Compound I-208, 3-(5-(1-((7-hydroxy-2-methylpyrazolo[1,5-a]pyrimidin-5-yl)methyl)piperidin-4-yl)-1-oxoisoindolin-2-yl)piperidine-2,6-dione], the DC50 on IKZF1 is > 30000 nM. Further, at IKZF2, the inhibition at 10 µM worked out at 60% and the DC50 worked out at 1500 nM.
The like results for `O=C1CCC(N2Cc3cc(C4CCN(Cc5cccc(C(F)F)c5)CC4)ccc3C2=O)C(=O)N1` (stereo not drawn) [Compound I-73, 3-(5-(1-(3-(difluoromethyl)benzyl)piperidin-4-yl)-1-oxoisoindolin-2-yl)piperidine-2,6-dione] were, in that order, > 30000 nM, 70% and 11 nM.
The like results for `O=C(O)Cc1ccc(CN2CCC(c3ccc4c(c3)CN(C3CCC(=O)NC3=O)C4=O)CC2)cc1` (stereo not drawn) [Compound I-231, 2-(4-((4-(2-(2,6-dioxopiperidin-3-yl)-1-oxoisoindolin-5-yl)piperidin-1-yl)methyl)phenyl)acetic acid] were, in that order, > 30000 nM, 60% and 250 nM.
On the same counts, the results for `CC(C)Sc1ccc(CN2CCC(c3ccc4c(c3)CN(C3CCC(=O)NC3=O)C4=O)CC2)cc1` (stereo not drawn) [Compound I-228, 3-(5-(1-(4-(isopropylthio)benzyl)piperidin-4-yl)-1-oxoisoindolin-2-yl)piperidine-2,6-dione] are > 30000 nM, 70% and 10 nM.
As for `O=C1CCC(N2Cc3cc(C4CCN(Cc5cnn(-c6ccccc6)c5)CC4)ccc3C2=O)C(=O)N1` (stereo not drawn) [Compound I-288, 3-(1-oxo-5-(1-((1-phenyl-1H-pyrazol-4-yl)methyl)piperidin-4-yl)isoindolin-2-yl)piperidine-2,6-dione], on IKZF1, the DC50 is > 30000 nM. On IKZF2, the inhibition at 10 µM turned out to be 80% and the DC50 came out at 12 nM.
On the same counts, the results for `CC(C)CN1CCC(c2ccc3c(c2)CN(C2CCC(=O)NC2=O)C3=O)CC1` (stereo not drawn) [Compound I-4, 3-(5-(1-isobutylpiperidin-4-yl)-1-oxoisoindolin-2-yl) piperidine-2,6-dione] are > 30000 nM, 60% and 31 nM.
As for `O=C1CCC(N2Cc3cc(C4CCN(CC5CCOCC5)CC4)ccc3C2=O)C(=O)N1` (stereo not drawn) [Compound I-13, 3-(1-oxo-5-(1-((tetrahydro-2H-pyran-4-yl)methyl)piperidin-4-yl)isoindolin-2-yl)piperidine-2,6-dione], the DC50 on IKZF1 is > 30000 nM; on IKZF2, 29 nM. For the same compound, on IKZF2, the inhibition at 10 µM is 60%.
The like results for `O=C1CCC(N2Cc3cc(C4CCN(Cc5cscn5)CC4)ccc3C2=O)C(=O)N1` (stereo not drawn) [Compound I-238, 3-(1-oxo-5-(1-(thiazol-4-ylmethyl)piperidin-4-yl)isoindolin-2-yl)piperidine-2,6-dione] were, in that order, > 25000 nM, 110 nM and 60%.
The like results for `O=C1CCC(N2Cc3cc(C4CCN([C@@H](CO)c5ccccc5)CC4)ccc3C2=O)C(=O)N1` (single isomer, unassigned) [Compound I-202] were, in that order, > 30000 nM, 590 nM and 40%.
On the same counts, the results for `O=C1CCC(N2Cc3cc(C4CCN(Cc5ccc(C(F)(F)F)cc5)CC4)ccc3C2=O)C(=O)N1` (stereo not drawn) [Compound I-76, 3-(1-oxo-5-(1-(4-(trifluoromethyl)benzyl)piperidin-4-yl)isoindolin-2-yl)piperidine-2,6-dione] are > 30000 nM, 17 nM and 75%.
Turning to `O=C1CCC(N2Cc3cc(C4CCN(Cc5cc(F)ccc5F)CC4)ccc3C2=O)C(=O)N1` (stereo not drawn) [Compound I-29, 3-(5-(1-(2,5-difluorobenzyl)piperidin-4-yl)-1-oxoisoindolin-2-yl)piperidine-2,6-dione], the DC50 on IKZF1 is > 30000 nM. In addition, at IKZF2, the inhibition at 10 µM is 70% and the DC50 worked out at 36 nM.
On the same counts, the results for `O=C1CCC(N2Cc3cc(C4CCN(Cc5cccc6ccccc56)CC4)ccc3C2=O)C(=O)N1` (stereo not drawn) [Compound I-49, 3-(5-(1-(naphthalen-1-ylmethyl)piperidin-4-yl)-1-oxoisoindolin-2-yl)piperidine-2,6-dione] are > 30000 nM, 60% and 4 nM.
For the compound `Cn1cc(CN2CCC(c3ccc4c(c3)CN(C3CCC(=O)NC3=O)C4=O)CC2)cn1` (stereo not drawn) [Compound I-115, 3-(5-(1((1-methyl-1H-pyrazol-4-yl)methyl)piperidin-4-yl)-1-oxoisoindolin-2-yl)piperidine-2,6-dione], the DC50 at IKZF1 is > 30000 nM. On IKZF2, the inhibition at 10 µM was 60% and the DC50 came out at 72 nM.
On the same counts, the results for `O=C1CCC(N2Cc3cc(C4CCN(C(CF)c5ccccc5)CC4)ccc3C2=O)C(=O)N1` (stereo not drawn) [Compound I-212, 3-(5-(1-(2-fluoro-1-phenylethyl)piperidin-4-yl)-1-oxoisoindolin-2-yl)piperidine-2,6-dione] are > 30000 nM, 60% and 49 nM.
For the compound `CCOc1ccc(CN2CCC(c3ccc4c(c3)CN(C3CCC(=O)NC3=O)C4=O)CC2)cc1` (stereo not drawn) [Compound I-287, 3-(5-(1-(4-ethoxybenzyl)piperidin-4-yl)-1-oxoisoindolin-2-yl)piperidine-2,6-dione], on IKZF1, the DC50 is > 30000 nM. On IKZF2, the inhibition at 10 µM turned out to be 70% and the DC50 amounted to 18 nM.
Take `O=C1CCC(N2Cc3cc(C4CCN(Cc5cccc6c5OCCO6)CC4)ccc3C2=O)C(=O)N1` (stereo not drawn) [Compound I-82, 3-(5-(1-((2,3-dihydrobenzo[b][1,4]dioxin-5-yl)methyl)piperidin-4-yl)-1-oxoisoindolin-2-yl)piperidine-2,6-dione]: the DC50 at IKZF1 was > 30000 nM. Besides, on IKZF2, the inhibition at 10 µM turned out to be 60% and the DC50 turned out to be 4 nM.
In the case of `O=C1CCC(N2Cc3cc(C4CCN(CCC(F)(F)F)CC4)ccc3C2=O)C(=O)N1` (stereo not drawn) [Compound I-179, 3-(1-oxo-5-(1-(3,3,3-trifluoropropyl)piperidin-4-yl)isoindolin-2-yl)piperidine-2,6-dione], the DC50 at IKZF1 is > 30000 nM. On IKZF2, the inhibition at 10 µM came to 40% and the DC50 turned out to be 67 nM.
The like results for `Cc1ccc(CN2CCC(c3ccc4c(c3)CN(C3CCC(=O)NC3=O)C4=O)CC2)c(C)c1` (stereo not drawn) [Compound I-42, 3-(5-(1-(2,4-dimethylbenzyl)piperidin-4-yl)-1-oxoisoindolin-2-yl)piperidine-2,6-dione] were, in that order, > 30000 nM, 60% and 9 nM.
On the same counts, the results for `O=C1CCC(N2Cc3cc(C4CCN(CCc5ccccc5)CC4)ccc3C2=O)C(=O)N1` (stereo not drawn) [Compound I-14, 3-(1-oxo-5-(1-phenethylpiperidin-4-yl)isoindolin-2-yl)piperidine-2,6-dione] are > 30000 nM, 65% and 14 nM.
On the same counts, the results for `O=C1CCC(N2Cc3cc(C4CCN(Cc5cnc(Cl)s5)CC4)ccc3C2=O)C(=O)N1` (stereo not drawn) [Compound I-10, 3-(5-(1-((2-chlorothiazol-5-yl)methyl)piperidin-4-yl)-1-oxoisoindolin-2-yl)piperidine-2,6-dione] are > 30000 nM, 60% and 85 nM.
As for `O=C1CCC(N2Cc3cc(C4CCN(Cc5c[nH]nc5-c5cccnc5)CC4)ccc3C2=O)C(=O)N1` (stereo not drawn) [Compound I-151, 3-(1-oxo-5-(1-((3-(pyridin-3-yl)-1H-pyrazol-4-yl)methyl)piperidin-4-yl)isoindolin-2-yl)piperidine-2,6-dione], at IKZF1, the DC50 was > 30000 nM. Moreover, on IKZF2, the inhibition at 10 µM came out at 60% and the DC50 was 95 nM.
The like results for `O=C1CCC(N2Cc3cc(C4CCN(Cc5ccccc5OC(F)F)CC4)ccc3C2=O)C(=O)N1` (stereo not drawn) [Compound I-80, 3-(5-(1-(2-(difluoromethoxy)benzyl)piperidin-4-yl)-1-oxoisoindolin-2-yl)piperidine-2,6-dione] were, in that order, > 30000 nM, 60% and 12 nM.
